According to article PMC4427186, “Forskolin Suppresses Delayed-Rectifier K^+ Currents and Enhances Spike Frequency-Dependent Adaptation of Sympathetic Neurons” (PLoS ONE, 2015):

Biological target: T1, Kv2.1 α subunit (Rattus norvegicus, UniProt P15387)
T1 construct: gene Kcnb1; homomeric channel
T1 sequence (P15387 1-857): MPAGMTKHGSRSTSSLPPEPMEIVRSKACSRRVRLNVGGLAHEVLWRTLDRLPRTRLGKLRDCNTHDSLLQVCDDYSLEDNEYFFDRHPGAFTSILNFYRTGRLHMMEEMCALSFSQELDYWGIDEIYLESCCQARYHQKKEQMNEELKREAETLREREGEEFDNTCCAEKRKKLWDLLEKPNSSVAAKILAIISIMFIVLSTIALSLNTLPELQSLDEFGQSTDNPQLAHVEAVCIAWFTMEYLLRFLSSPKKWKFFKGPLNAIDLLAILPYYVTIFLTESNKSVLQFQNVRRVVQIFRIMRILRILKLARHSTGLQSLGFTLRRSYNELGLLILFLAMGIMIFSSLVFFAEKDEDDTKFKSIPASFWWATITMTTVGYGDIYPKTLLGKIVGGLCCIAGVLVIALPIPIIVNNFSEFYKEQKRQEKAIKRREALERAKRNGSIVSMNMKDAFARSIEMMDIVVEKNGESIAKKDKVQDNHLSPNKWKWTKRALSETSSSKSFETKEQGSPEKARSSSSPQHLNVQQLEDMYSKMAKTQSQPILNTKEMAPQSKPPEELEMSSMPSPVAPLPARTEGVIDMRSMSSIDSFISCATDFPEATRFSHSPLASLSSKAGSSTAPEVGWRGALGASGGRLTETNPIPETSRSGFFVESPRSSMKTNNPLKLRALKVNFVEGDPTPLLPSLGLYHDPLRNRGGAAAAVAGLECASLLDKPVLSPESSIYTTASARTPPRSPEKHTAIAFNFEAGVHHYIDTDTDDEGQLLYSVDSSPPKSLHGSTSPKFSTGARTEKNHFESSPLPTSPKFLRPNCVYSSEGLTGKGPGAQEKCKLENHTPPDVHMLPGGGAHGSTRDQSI
Test: whole-cell patch clamp, tail current amplitude
Assay type: cell-based

- IC50: 31.6 µM
SMILES: C=C[C@@]1(C)CC(=O)[C@]2(O)[C@@]3(C)[C@@H](O)CCC(C)(C)[C@@H]3[C@H](O)[C@H](OC(C)=O)[C@@]2(C)O1 [forskolin]
